Measured values: US20080220056A1, “Treatment for liver disease” (UNIVERSITY OF SOUTHAMPTON, priority 2002, published 2008)

How the values were obtained:
[1] = tested on: caspase 3 activity in 10 day culture activated hepatic stellate cells; assay: Caspase 3 activity (pNA liberation) of hepatic stellate cells treated with 5-HT2 antagonists; type: cell-based, rat; conditions: for effect of serotonin on the specific caspase 3 activity: LY 53,857 100 μM 24 hours, Methiothepin maleate 10 μM 3 hours, with serotonin (100 M [sic])
Protocol: (§1) The mRNA for the 5-HT2B receptor was only found in 10 day culture activated hepatic stellate cells, whereas the mRNA for the 5-HT2C receptor was absent from all cells investigated. […] 10 day culture activated hepatic stellate cells were treated with a range of 5-HT2 antagonists (including Spiperone HCl, Methiothepin Maleate and LY 53,857) at various concentrations and time periods and nuclear morphology was assessed using Acridine Orange (1 μg/ml) staining as described in Examples 1 and 2. […] Caspase 3 activity (as defined by pNA liberation) was subsequently determined at the predetermined optimal times and doses as described in Examples 1 and 2. 10 day culture activated hepatic stellate cells were also treated with the antagonist together with the 5-HT2 agonist serotonin (5-hydroxytryptamine 100 µM) to see if any modification of the caspase 3 specific activity could be achieved by direct receptor binding site competition.

[2] = tested on: 10 day culture activated hepatic stellate cells; assay: Nuclear morphology (acridine orange) of hepatic stellate cells treated with 5-HT2 antagonists; type: cell-based, rat
Protocol: as §1

[3] = tested on: caspase 3 activity in rat hepatic stellate cells; assay: Caspase 3 (Ac-DEVD-pNA cleavage) activity in rat hepatic stellate cells; type: cell-based; conditions: 200 μmol/L chlorpromazine, three hours
Protocol: Hepatic stellate cells cultured in 100 mm diameter dishes (Greiner, Frickenhausen, Germany) were harvested and pelleted by centrifugation. The medium supernatant was discarded and the cell pellet was washed in 1 mL of ice-cooled phosphate buffered saline (PBS). Caspase 3 (DEVDase) activity was determined using a colorimetric CaspACE kit (Promega, Southampton, England) using the manufacturer's instructions.
Caspase 3 (Ac-DEVD-pNA cleavage) activity was then examined in control and gliotoxin-treated hepatic stellate cells. Culture activated rat hepatic stellate cells (14 days) in 100 mm diameter plates were treated with 0.05% (vol/vol) DMSO, 1.5 μmol/L gliotoxin, 20 μmol/L Z-VAD-FMK or 200 μmol/L chlorpromazine for three hours. The cells were then harvested for examination of caspase 3 activity as outlined in the materials and methods sections.

[4] = tested on: rat hepatic stellate cells; assay: Trypan blue exclusion of treated rat hepatic stellate cells; type: cell-based; conditions: rat HSC; 1.5 μmol/L gliotoxin or 200 μmol/L chlorpromazine
rat hepatocytes [5] = assay: DNA laddering in rat hepatocytes; type: cell-based; conditions: four hours; 50 μmol/L gliotoxin, 200 μmol/L chlorpromazine, 200 μmol/L methapyrilene, 10 ng/mL TNF-α with cycloheximide
Protocol: Hepatic stellate cells cultured in 35-mm diameter dishes (Greiner) were harvested, pelleted by centrifugation and DNA fragmentation determined as outlined elsewhere (Elsharkawy et al., Hepatology (1999) 30:761-769). Propidium Iodide Flow-Activated Cell Sorting Analysis Detached cells were pelleted by centrifugation, washed in PBS, and resuspended in HYPO buffer (0.1% wt/vol) Na3Citrate and 0.1% (wt/vol) Triton™ X-100 containing […] propidium iodide and incubated for 1 hour. The cells were then analyzed by fluorescence-activated cell sorter (FACS) with a Becton Dickinson (San Jose, Calif.) FACScan instrument using a 488 nm excitation wavelength with a band pass filter set at 530 nm. Attached cells were scraped in HYPO buffer after washing cells with PBS.
DNA laddering was also used to compare the effect of gliotoxin, chlorpromazine, methapyrilene and also the combination of TNF-α with cycloheximide on hepatocytes and hepatic stellate cells.

rat hepatocytes [6] = assay: Rat hepatocyte viability by attachment and trypan blue exclusion; type: cell-based; conditions: 200 μmol/L, four hours
Protocol: Rat hepatocytes were isolated by collagenase perfusion essentially as previously described. (Harvey et al., Biochemical J., (1998) 331:273-281). Hepatocytes were cultured as outlined for hepatic stellate cells except that they were initially seeded onto collagen coated plates in William's medium E supplemented with 10% fetal calf serum and 1 μg/mL insulin for the first 2 hours.
Cells were treated with gliotoxin dissolved in DMSO vehicle (added to medium from a 2000-fold molar concentrated stock). Control cells received DMSO vehicle only (i.e., 0.05% vol/vol). All other additions to culture medium were made from concentrated stocks dissolved in DMSO or by direct addition to culture medium. Protein contents of wells were determined using the Lowry assay (Lowry et al., J. Biol. Chem., (1951)193: 265-275).
The effect of various compounds on cell viability and attachment was determined. Viability of rat hepatocytes as judged by attachment and 0.1% (wt/vol) trypan blue exclusion after four hours treatment with: […]

[7] = tested on: human hepatic stellate cells; assay: Hepatic stellate cell apoptosis by acridine orange staining and counting (cycloheximide or serum deprivation), human cells; type: cell-based; conditions: human HSC; protein at 142.5 ng/ml
Protocol: (§2) Human hepatic stellate cells were extracted from the margins of normal human liver resected for colonic metastatic disease as previously described (Iredale et al., Clin. Sci., (1995) 89: 75-81). Rat hepatic stellate cells were extracted from normal rat liver by Pronase and collagenase digestion and purified by centrifugal elutriation as described (Arthur et al., J. Clin. Invest., (1989) 84:1076-1085). Extracted hepatic stellate cells were cultured on plastic until they were activated to a myofibroblastic phenotype after 7 to 10 days. Human and rat hepatic stellate cells were used for experiments after activation in primary culture or before fourth passage. Cells were cultured in Dulbecco's modified Eagle's medium in the presence of 16% fetal calf serum and antibiotics.
Apoptosis of hepatic stellate cells was induced by absolute serum deprivation, cycloheximide treatment (Issa et al., Gut (2001) 48: S48-S57), or exposure to nerve growth factor as previously described (Trim et al., Am. J. Pathol., (2000) 156, 1235-1243). Hepatic stellate cells were cultured in 24-well tissue culture plates. […] Following a 4 hour incubation at 37° C., nuclear morphology was assessed by adding acridine orange to each well (final concentration 1 μg/ml) and observing the cells under blue fluorescence. The total number of apoptotic bodies was counted, and any apoptotic bodies floating in the supernatant were included by racking up the objective lens. The total number of cells per field was counted, and an apoptotic index was calculated. Each condition was performed in duplicate, and three high power fields were counted for each well. […] To examine for autocrine effects, hepatic stellate cells were incubated for 18 hours with azide-free polyclonal neutralizing antibodies to TIMP-1 and a nonimmune IgG control (Santa Cruz Biotechnology, Inc., Santa Cruz, Calif.), and responses were assessed by acridine orange staining and counting.
Apoptosis was assessed by acridine orange staining. […]

[8] = tested on: caspase-3 activity in hepatic stellate cells; assay: Caspase-3 activity in cycloheximide-treated hepatic stellate cells; type: cell-based; conditions: wild type TIMP-1 or T2G mutant N-TIMP-1
Protocol: Apoptosis was quantified by a colorimetric assay for caspase-3 activity (Promega) according to the manufacturer's instructions.
Caspase-3 is a central caspase in the proapoptotic cascade (Hengartner, Nature (2000) 407, 770-776) and can be used as an alternative assay to assess apoptosis. Hepatic stellate cells were cultured in 50 μM cycloheximide with TIMP-1 at a concentration of 0, 1, 10, or 100 ng/ml. Controls where cells were incubated with either the caspase 3 inhibitor benzyloxycarbonyl-Val-Ala-Asp-fluoromethylketone or serum alone were also performed. Data are expressed as mean ±S.E. and are presented as percentage of control given the arbitrary value of 100%. * indicates p<0.001; n=3. […] Although the mean caspase-3 activity of the cells treated with 10 ng/ml TIMP-1 was slightly lower than that treated with 100 ng/ml of TIMP-1, this was not statistically significant (p=0.67 by Student's t test).

[9] = tested on: rat hepatic stellate cells; assay: Hepatic stellate cell apoptosis by acridine orange staining and counting (cycloheximide or serum deprivation), rat cells; type: cell-based; conditions: rat HSC; protein at 142.5 ng/ml
Protocol: as §2
Apoptosis of hepatic stellate cells was induced by absolute serum deprivation, cycloheximide treatment (Issa et al., Gut (2001) 48: S48-S57), or exposure to nerve growth factor as previously described (Trim et al., Am. J. Pathol., (2000) 156, 1235-1243). Hepatic stellate cells were cultured in 24-well tissue culture plates. Rat and human hepatic stellate cells were exposed to proapoptotic stimuli with and without recombinant TIMP-1 (Biogenesis, Poole, UK) and other manipulations as detailed below. Following a 4 hour incubation at 37° C., nuclear morphology was assessed by adding acridine orange to each well (final concentration 1 μg/ml) and observing the cells under blue fluorescence. The total number of apoptotic bodies was counted, and any apoptotic bodies floating in the supernatant were included by racking up the objective lens. The total number of cells per field was counted, and an apoptotic index was calculated. Each condition was performed in duplicate, and three high power fields were counted for each well. […] To examine for autocrine effects, hepatic stellate cells were incubated for 18 hours with azide-free polyclonal neutralizing antibodies to TIMP-1 and a nonimmune IgG control (Santa Cruz Biotechnology, Inc., Santa Cruz, Calif.), and responses were assessed by acridine orange staining and counting.
Apoptosis was assessed by acridine orange staining. […] A normal cell lies adjacent to the apoptotic body. This technique was used to determine the percentage of apoptotic hepatic stellate cells following exposure to cyclohexamide in the presence or absence of TIMP-1. Hepatic stellate cells were exposed to 50 μM cyclohexamide and 0, 1, 10, 100 or 200 ng/ml of TIMP-1. Cells treated with serum alone were used as controls. […] Bovine serum albumin, used as a carrier for the TIMP-1 had no antiapoptotic effect.

## CC(O)C(C)OC(=O)[C@@H]1C[C@@H]2c3cccc4c3c(cn4C(C)C)C[C@H]2N(C)C1 (stereo partly shown) [LY 53,857]
[1]; 100 μM for 24 hours (LY 53,857)
  specific caspase 3 activity: 1 μmol pNA liberated/hour/μg protein
[1]
  effect of serotonin on the specific caspase 3 activity: not significantly reduced by the presence of serotonin
[2]; 24 hours at 100 μM (LY 53,857)
  maximal nuclear condensation: ~100%

## CSc1ccc2c(c1)C(N1CCN(C)CC1)Cc1ccccc1S2.O=C(O)/C=C\C(=O)O (stereo not shown) [Methiothepin maleate]
[1]; 10 μM for 3 hours (Methiothepin maleate)
  specific caspase 3 activity: 0.9 μmol pNA liberated/hour/μg protein
[1]
  effect of serotonin on the specific caspase 3 activity: not significantly reduced by the presence of serotonin
[2]; 3 hours at 10-100 μM (Methiothepin maleate)
  maximal nuclear condensation: 100%

## O=C(CCCN1CCC2(CC1)C(=O)NCN2c1ccccc1)c1ccc(F)cc1 [Spiperone]
[1]; 100 μM for 24 hours (Spiperone)
  specific caspase 3 activity: 6.5 μmol pNA liberated/hour/μg protein
[1]; Spiperone 100 μM for 24 hours with serotonin (100 M [sic])
  specific caspase 3 activity in the presence of serotonin: 4 μmol pNA liberated/hr/μg protein
[2]; 24 hours at 100 μM (Spiperone)
  maximal nuclear condensation: 80%

## CN(C)CCCN1c2ccccc2Sc2ccc(Cl)cc21 [chlorpromazine]
[3]
  increase in caspase 3 activity: not seen
[4]
  0.1% (wt/vol) trypan blue exclusion (membrane integrity): unable to exclude 0.1% (wt/vol) trypan blue
Rat hepatocytes [5]
  cleavage of hepatocyte DNA to a nucleosomal ladder: only hepatocytes treated with TNF-α and cycloheximide cleaved their DNA to a nucleosomal ladder
Rat hepatocytes [6]
  hepatocytes that do not exclude trypan blue, compared with 50 μmol/L gliotoxin: a level similar

## wild type N-TIMP-1: wild type (active) TIMP-1 protein compared with the T2G mutant
[7]
  apoptosis induced by cycloheximide (acridine orange): significantly inhibited apoptosis
[8]
  caspase-3 activity in cycloheximide-treated hepatic stellate cells: significantly reduced caspase-3 activity
[9]
  apoptosis induced by cycloheximide (acridine orange): significantly inhibited apoptosis
